Test results published in patent publication US9655822B2, “Hydrated lamellar phases or liposomes which contain a fatty monoamine or a cationic polymer which promotes intracellular penetration, and a cosmetic or pharmaceutical composition containing same, as well as a method of screening such a substance” (BASF Beauty Care Solutions France S.A.S., priority 2004, dated 2017).

Columns and labels:
normal human fibroblasts [1] = assay: Cell viability in the screening of functionalising molecules; settings: 1% of molecule (25 kDa PEI: 50 μM), 96-well plate
Description: 250 μl of liposomal suspension is added onto cultures of normal human fibroblasts extracted from abdominal plasy and cultivated in a 96-well plate. Each concentration is tested on 6 different wells. The cell viability is evaluated by a test with paranitrophenylphosphate which determines the intracellular alkaline phosphatase activity after three rinses with pH 7.4 phosphate buffer. The percentage of living cells is calculated with respect to a control made without the addition of liposome in the culture well (n=6).
55 molecules are firstly tested in triplicate, in comparison with the 50 μM 25 kDa PEI. The intracellular penetration is quantified after 24 hours of incubation on normal human fibroblasts cultivated in 24-well plates as described in Example 2. The cell viability is estimated in a 96-well plate with 200 μl of liposomal suspension.
The intracellular penetration and the cytotoxicity are evaluated as described in Example 2.

normal human fibroblasts [2] = assay: Screening of molecules which stimulate the intracellular penetration of PFB-F incorporated in a liposome; format: cell-based
Description: These molecules are retained in priority. The preparation of the liposomes with primary fatty monoamines of alkyl chain length of between 3 and 18 carbons and the quantification of the intracellular penetration of the fluorescent label are carried out as described in the preceding Example. […] We have thus studied the intracellular penetration of the PFB-F encapsulated in liposomes in the presence of primary fatty monoamines on the one hand, and with secondary fatty monoamines on the other hand. The preparation of the liposomes with primary or secondary fatty amines and the quantification of the intracellular penetration of the fluorescent markers are carried out as described in Example 8.

[3] = Transcutaneous permeation on human skin; settings: 0.5% vitamin E in liposomes with 2% quaternised soya solution vs free or liposome without quaternised agent; HPLC, 5 to 24 hours
Description: The diffusion kinetics were quantified by spectrofluorimetry from 3 to 24 hours. The release was quantified after 24 additional hours. The storage was also evaluated last. The number of samples tested is 5 per condition.
The diffusion kinetics were quantified by high performance liquid chromatography from 5 to 24 hours. The release was quantified after 24 additional hours. The storage was also evaluate last.

[4] = 1% of molecule (25 kDa PEI: 50 μM), 5% soya lecithin, 0.01% PFB-F, 24 hours

Molecule `C[N+](C)(CCO)CCCNC(=O)[C@H](O)[C@@H](O)[C@H](O)[C@H](O)CO.[Cl-]` [Quaternium 22] has a Viability (normal human fibroblasts [1]) of 98.9% and a Stimulation factor (normal human fibroblasts [2]; [4]) of 2.
For `CCCCN` [n-Butylamine C4, n-Butylamine], the Stimulation factor (normal human fibroblasts [2]; [4]) was 1.4, the Stimulation factor (normal human fibroblasts [2]; by number of alkyl chains of the amine (chain length), as in Example 8) was 1.7 and the “Stimulation factor” value (normal human fibroblasts [2]; primary monoamine with a single alkyl fatty chain, by number of carbons, as in Example 8) was 1.4.
For Quaternium 26, the Viability (normal human fibroblasts [1]) was 59.2% and the Stimulation factor (normal human fibroblasts [2]; [4]) was 30.9.
Molecule Quaternium 70 and PG has a Viability (normal human fibroblasts [1]) of 63.9% and a Stimulation factor (normal human fibroblasts [2]; [4]) of −0.2.
“Stearamidopropyl cetearyl dimonium tosylate and PG” showed a Viability (normal human fibroblasts [1]) of 93.2% and a Stimulation factor (normal human fibroblasts [2]; [4]) of 13.1.
In the case of vitamin E, the “diffusion, release and storage (in words)” value [3] is reported as “significantly stimulates the diffusion, the release and the storage”.
